Test results from patent US8329644B2, “Lantibiotic-based compounds having antimicrobial activity” (Novacta Biosystems Limited, priority 2007, dated 2012).
Converted amounts (≈) assume the structure as drawn. “And” between values parts separate entries of the source, which are not always exact repeats. Equal entries are not always repeated.

Assays:
Type in all cases: cell-based
Bacteroides fragilis = experiment: MIC against intestinal flora organisms, Bacteroides fragilis; conditions: Bacteroides fragilis NCTC 9343; Table 5
E. faecium = experiment: MIC susceptibility testing, E. faecium
Procedure: (§1) Susceptibility testing for all aerobic organisms with the exception of Streptococcus pneumoniae was performed by two-fold serial antibiotic dilutions in Mueller-Hinton Broth supplemented with 50 μg/ml Ca^2+ unless otherwise noted. Susceptibility testing for S. pneumoniae was performed by two-fold serial antibiotic dilutions in Brain-Heart-Infusion Broth supplemented with 50 μg/ml Ca^2+ unless otherwise noted. Actively growing broth cultures were diluted to contain […] by adjusting to an OD600 of 0.2-0.3. They were then diluted a further 1:100 in fresh sterile broth. The assays were performed in duplicate in sterile 96-well microtitre plates in a total volume of 200 μl (160 μl broth, 20 μl antimicrobial agent, 20 μl inoculum) in a concentration range from 64 μg/ml to 0.06 μg/ml. […] Clinical isolates of Clostridium difficile were tested in Wilkins-Chalgren Anaerobe Agar under anaerobic conditions. In all cases, vancomycin was used as a reference antibiotic

Clostridium difficile = experiment: MIC, Clostridium difficile in Wilkins-Chalgren Anaerobe Agar; conditions: Table 4
Procedure: as §1

CCC(C)[C@@H]1NC(=O)[C@H](C(C)C)NC(=O)[C@H]2NC(=O)CNC(=O)[C@@H]3CS[C@@H](C)[C@@H](NC(=O)[C@H]4CSC[C@H](N)C(=O)N[C@@H](CO)C(=O)NCC(=O)N[C@@H](Cc5c[nH]c6ccccc56)C(=O)N[C@@H](C(C)C)C(=O)N4)C(=O)N[C@@H](CC(C)C)C(=O)N[C@@H](C(=O)N[C@@H](C(C)CC)C(=O)N[C@@H](CCC(=O)O)C(=O)N3)[C@H](C)SC[C@H](NC1=O)C(=O)N[C@@H](C)C(=O)N[C@H](C(=O)NCCO)C[S+]([O-])[C@H]2C (stereo partly shown) [Compound III, Actagardine N-[2-ethanolamine]monocarboxamide]
Minimal Inhibitory Concentration (MIC) (Bacteroides fragilis): >64 µg/mL
MIC (E. faecium; E. faecium 19579, Table 2): 16 µg/mL (≈ 8.28 µM)
MIC (E. faecium; E. faecium 19579, Vancomycin sensitive enterococci, Table 3): 16 µg/mL (≈ 8.28 µM)
MIC (E. faecium; E. faecium 7131121, Table 2): 64 µg/mL (≈ 33.1 µM)
MIC (E. faecium; E. faecium 7634337, Vancomycin resistant enterococci, Table 3): >32 µg/mL
MIC (E. faecium; E. faecium 7662769, Vancomycin resistant enterococci, Table 3): >32 µg/mL
MIC (E. faecium; E. faecium 7865229, Vancomycin sensitive enterococci, Table 3): >32 µg/mL
MIC (E. faecium; E. faecium 7865532, Vancomycin resistant enterococci, Table 3): >32 µg/mL
MIC (E. faecium; E. faecium 9709024, Vancomycin resistant enterococci, Table 3): >32 µg/mL
MIC (E. faecium; E. faecium 9710577, Vancomycin resistant enterococci, Table 3): >32 µg/mL
Minimal Inhibitory Concentration (MIC) (E. faecium; E. faecium (VRE) (clinical isolate), Table 5, first isolate): 64 µg/mL
Minimal Inhibitory Concentration (MIC) (E. faecium; E. faecium (VRE) (clinical isolate), Table 5, second isolate): 4 µg/mL
Minimal Inhibitory Concentration (MIC) (E. faecium; E. faecium (VSE) ATCC 19579, Table 5): 16 µg/mL
Minimal Inhibitory Concentration (MIC) (E. faecium; E. faecium (VSE) ATCC 29212, Table 5): 4 µg/mL
MIC (E. faecium; E. faecium GRL05031, Vancomycin resistant enterococci, Table 3): 4 µg/mL (≈ 2.07 µM)
MIC (E. faecium; E. faecium GRL05032, Vancomycin resistant enterococci, Table 3): 4 µg/mL (≈ 2.07 µM)
MIC (E. faecium; E. faecium GRL05033, Vancomycin resistant enterococci, Table 3): 8 µg/mL and 4 µg/mL
MIC (E. faecium; E. faecium GRL05034, Vancomycin resistant enterococci, Table 3): 16 µg/mL (≈ 8.28 µM)
MIC (E. faecium; E. faecium GRL05035, Vancomycin resistant enterococci, Table 3): 16 µg/mL (≈ 8.28 µM)
MIC (Clostridium difficile; C. difficile 027C): 1 µg/mL (≈ 0.517 µM)
MIC (Clostridium difficile; C. difficile 027SM): 1 µg/mL (≈ 0.517 µM)
MIC (Clostridium difficile; C. difficile 19126): 2 µg/mL (≈ 1.03 µM)
MIC (Clostridium difficile; C. difficile 37779): 2 µg/mL (≈ 1.03 µM)
MIC (Clostridium difficile; C. difficile B32): 2 µg/mL (≈ 1.03 µM)
MIC (Clostridium difficile; C. difficile E4): 1 µg/mL (≈ 0.517 µM)
MIC (Clostridium difficile; C. difficile E16): 2 µg/mL (≈ 1.03 µM)
MIC (Clostridium difficile; C. difficile E101): 2 µg/mL (≈ 1.03 µM)
MIC (Clostridium difficile; C. difficile P24): 2 µg/mL (≈ 1.03 µM)
MIC (Clostridium difficile; C. difficile P49): 1 µg/mL (≈ 0.517 µM)
MIC (Clostridium difficile; C. difficile P59): 1 µg/mL (≈ 0.517 µM)
MIC (Clostridium difficile; C. difficile P62): 1 µg/mL (≈ 0.517 µM)
